Data on 1 molecule can be found in patent US20090098044A1, “SOLID PARTICLES FROM CONTROLLED DESTABILISATION OF MICROEMULSIONS” (Australian Nuclear Science and Technology Organisation, priority 2004, published 2009).

What all share (type): physicochemical
One data set can be described thus: Solubility of the drug.
Data set [1] is described as follows: Decomposition of doxorubicin at pH 7.4 versus pH<4. The text has this: The decomposition rate of doxorubicin at physiological pH (pH 7.4) versus its decomposition rate at pH<4 makes analysis of the system difficult.
Data set [2] can be described thus: Decomposition of pure doxorubicin in PBS (pH 6.9/25° C.) at 37° C. The note with it: normal phosphate buffer.

For `COc1cccc2c1C(=O)c1c(O)c3c(c(O)c1C2=O)C[C@@](O)(C(=O)CO)C[C@@H]3O[C@H]1C[C@H](N)[C@H](O)[C@H](C)O1` [doxorubicin], the “solubility of doxorubicin in acetone” value in the data set “Solubility of the drug” (acetone) was “high solubility”. Moreover, the “solubility of doxorubicin in aqueous solutions” value in the data set “Solubility of the drug” (aqueous solutions, orange precipitate seen after day 9) is reported as “limited solubility”. Besides, in data set [1] (known concentration of doxorubicin, FIG. 44), the “decomposition of doxorubicin at pH 7.4 compared with pH<4” value is recorded as “increased decomposition at physiological pH”. Further, the “stability of doxorubicin as a function of pH” value in data set [1] (pH<4 (pH ~3.4)) is “most stable at this pH”. The doxorubicin disappears entry in data set [2] (in 2 weeks) is on record as “about 74%”. Moreover, the half-life in data set [2] (phosphate buffer (PBS), pH 6.9, exponential decomposition during first ten days, read-out: half decay (T1/2) of doxorubicin (converted)) was approximately 108 h.
